Reference: patent US9738668B2
“Also recorded” adds a separate entry of the source.

What was measured:
[1] = tested on: hippocampal long-term potentiation; experiment: Hippocampal long-term potentiation (LTP) in slices from treated mice; assay type: in vivo; conditions: hippocampal slices from treated mAPP mice
Method: LTP was induced by theta-burst stimulation (TBS) 20 minutes after baseline recordings in hippocampal slices from Non-Tg mice treated with vehicle (n=9 slices from 3 mice), Non-Tg mice treated with Compound 8 (n=9 slices from 3 mice), mAPP mice treated with vehicle (n=8 slices from 3 mice), and mAPP mice treated with Compound 8 (n=8 slices from 3 mice). LTP is expressed as percentage potentiation of baseline (100%)(FIG. 5A).
LTP is expressed as percentage potentiation of baseline (100%)(FIG. 7A).
Synaptic failure in AD is largely reflected by impaired long-term synaptic plasticity in terms of long-term potentiation (LTP). […] Representative field excitatory post-synaptic potentials (fEPSP) waveforms are provided in FIGS. 5A and 7A and the residual potentiation from fEPSP slopes occurring over the last 5 minutes of LTP recording are provided in FIGS. 5B and 7B.

SK-N-SH cells = experiment: ATP levels in Aβ-treated cells; assay type: cell-based; conditions: for ATP levels: 5 μM Aβ1-42 plus 1 μM inhibitor; for ATP levels, inhibitor alone: inhibitor without Aβ
Method: Forty-eight hour later, ATP levels (μmol mg^−1 protein) were measured in cell lysates.
To determine the effect of ABAD inhibitors on Aβ-induced impairment in energy metabolism, ATP levels were measured. […] ATP levels were measured in the cell lysates. […] Therefore, ABAD inhibitors can block mitochondrial dysfunction mediated by Aβ.

cells [2] = experiment: MTT reduction assay (cell survival and toxicity); assay type: cell-based; conditions: 1, 10, 50, 100 μM, 48 to 66 hours
Method: The MTT (3-(4,5-dimethylthiazol-2-yl)-2,5-diphenyltetrazolium bromide) assay, which is widely used to measure cell proliferation and to screen for anticancer drugs, was used for assessing cell viability. Cells were treated with a range of ABAD compounds at 1, 10, 50, and 100 μM for 48 hours and then subjected to MTT reduction assay following the manufacture's instruction.
(§1) The effect of ABAD inhibitors on cell viability and toxicity was assessed using MTT reduction assay and trypan blue exclusion, which are widely used to assess cell survival and toxicity and to screen for drugs toxicity. Cells were treated with a range of concentrations of ABAD compound (4 and 8) at 1, 10, 50, 100 μM for 48 to 66 hours.

cells [3] = experiment: Trypan blue dye exclusion (cell viability and toxicity); assay type: cell-based; conditions: 1, 10, 50, 100 μM, 48 to 66 hours
Method: The trypan blue dye exclusion is commonly used for measuring cell viability and toxicity. 48-66 hours after treatment of ABAD compounds, the trypan blue exclusion experiments were performed. In brief, cells plated in 96-well plates were washed with the balanced salt solution (Hanks-Balanced Salts/HBSS) once, then replaced with HBSS including trypan blue solution to the final concentration of 0.2% (Sigma-Aldrich, St. Louis, Mo.), and mixed thoroughly. After standing at room temperature for 5 minutes, the cells were washed with HESS again and then maintained in the well with HBSS. Both the stained and unstained cells in each well were counted under a microscope (Nikon E400). The calculated percentage of unstained cells represented the percentage of viable cells. Cell viability (%)=total viable cells (unstained)/total cells (stained and unstained)×100.
as §1

mAPP mice = experiment: Morris water maze learning and memory in Alzheimer's Disease transgenic mice; assay type: in vivo; conditions: for latency to find the hidden platform: treated vs untreated AD mice; for number of crossings at the target location / percent of time spent in the target quadrant: treated vs untreated mAPP mice, probe trial
Method: Wild-type mice (Non Tg) were also administered Compound 8 (n=5) and vehicle (n=5). Each mouse was given four 60-second trials per day for six consecutive days to find the hidden platform in a Morris water maze.
Wild-type mice were also administered Compound 8 […]. Each mouse was given four 60-second trials per day for seven consecutive days to find the hidden platform in a Morris water maze.
Each mouse was given four 60-second trials per day for six consecutive days to find the hidden platform in a Morris water maze.
In addition, the effect of Compounds 4 and 8 on learning and memory of Alzheimer's Disease (AD) transgenic mice was evaluated. Six month and 9-14 month-old transgenic mice overexpressing a mutated form of the human amyloid precursor protein (mAPP mice) and their wild-type (non Tg) littermates were used in this study. […] Moreover, performance in a spatial MWM trial was evaluated using crossings over the platform area (an index of memory precision; Morris (1984) J. Neurosci. Methods 11:47-60), percent of time spent in target quadrant (an index of memory retrieval; Morris (1984) J. Neurosci. Methods 11:47-60), and swim paths.

[4] = Solubility in solvents during LC method development; assay type: physicochemical
Method: During the development of a detection method for analytes 4, 8 and 15, multiple solvents were tested to find the optimal mobile phase. […] Acetonitrile was selected for better peak shape and compatibility with serum/brain protein precipitation. Compounds 8 and 15 were chosen as IS, because of their structural similarity. Selected reaction monitoring (SRM) acquisitions were used for sensitivity and extended dynamic range. The cone voltage and collision energy were optimized for 4, 8 and 15 and the IS by continuously infusing a mixture of the two. The optimum cone voltage was 30V.

[5] = Pharmacokinetic study and BBB penetration, LC-MS/MS of plasma and brain; assay type: in vivo, C57BL6 mice; conditions: mice, intravenous 10 mg/kg
Method: Using the validated LCMS/MS method, blood and brain levels of 4, 8, and 15 were measured in male and female C57BL6 mice (8-10 week-old, weighing approximately 25-30 grams). The mice were housed in a room with controlled temperature (23±3° C.) and moisture level (55±15% relative humidity) and exposed to a controlled 12 hour light/12 hour dark cycle. They were allowed to access to food and water ad libitum. Mice were fasted for 6 hours with free access to water prior to the pharmacokinetic study. To determine the time course of compounds 4, 8, and 15 action in the brain, the plasma pharmacokinetics and BBB penetration capability of the inhibitors were investigated. In these experiments, compounds 4, 8, and 15 were administered to mice by intravenous injection at a dosage of 10 mg/kg. Blood and brain samples were collected from mouse at each time point (2, 5, 10, 30, 60, 120, 240, 360, 720, 1440, and 2880 minutes), a total of 11 time points. For plasma measurements, blood (approximately 500-800 μl) was collected via cardiac-puncture into tubes containing sodium heparin anti-coagulant. Plasma was separated via centrifugation (4° C., 3500 rpm, 10 minutes) and stored in −80° C. freezer. For qualitative confirmations of these compounds in CSF, samples were collected at 2 time points (240 and 1440 min) from five animals at each time point. At the time of measurement, frozen plasma samples were thawed at room temperature and vortexed thoroughly. The following quantities were estimated using non-compartmental calculations performed with WINNONLIN 5.2 (Pharsight, Sunnyvale, Calif.): the area under the plasma concentration-time curve during the period of observation (AUC0-τ); the area under the plasma concentration-time curve from zero to infinity (AUC0-∞); the maximum plasma concentration (Cmax); the time to reach Cmax (Tmax); and the half-life (t1/2).
The LC-MS/MS method described above was used for the determination of 4, 8 and 15 in plasma, brain, and CSF for pharmacokinetic study. Based on the initial concentration data, the pharmacokinetic parameters including the area under the plasma concentration-time curve during the period of observation (AUC0-t), the area under the plasma concentration-time curve from zero to infinity (AUC0-∞) the maximum plasma concentration (Cmax) the time to reach Cmax (Tmax) and the half-life (t1/2) are shown in Table 8.

Structure (SMILES) | hippocampal long-term potentiation (LTP) [1] | ATP levels (SK-N-SH cells) | ATP levels, inhibitor alone (SK-N-SH cells) | MTT reduction (cells [2]) | percentage of trypan blue-positive cells (cells [3]) | latency to find the hidden platform (mAPP mice) | number of crossings at the target location (mAPP mice) | percent of time spent in the target quadrant (mAPP mice) | solubility in methanol or acetonitrile [4] | solubility in water [4] | t1/2 ([5]; Brain) [h] | t1/2 ([5]; Plasma) [h]
COc1ccc2nc(N[C@@H](c3ccc(O)cc3)P(=O)(OC)OC)sc2c1 (racemic) [Compound 8, Dimethyl ((4-hydroxyphenyl)((6-methoxybenzo[d]thiazol-2-yl)amino)methyl)phosphonate] | impairments were diminished; also recorded: protective effects | rescued ATP levels | comparable to cells treated with vehicle alone | did not exhibit decreased MTT reduction | did not exhibit decreased MTT reduction, increased percentage of trypan blue-positive cells | significantly shorter latency | significantly more | significantly more | dissolved readily | dissolved partially | 8.3 | 5.5
COC(=O)c1cc([C@H](Nc2nc3ccc(OC)cc3s2)P(=O)(OC)OC)ccc1O [Compound 4, Methyl 5-((dimethoxyphosphoryl)((6-methoxybenzo[d]thiazol-2-yl)amino)methyl)-2-hydroxybenzoate] | impairments were diminished; also recorded: protective effects | rescued ATP levels | comparable to cells treated with vehicle alone | did not exhibit decreased MTT reduction | did not exhibit decreased MTT reduction, increased percentage of trypan blue-positive cells | significantly shorter latency | significantly more | significantly more | dissolved readily | dissolved partially | 17.1 | 6.2
